Where “and” joins values, the source holds several entries; their conditions need not be identical. Identical values can stand only once.

The conditions of data set [1]: at a dose lower than the triterpene fraction A devoid of erythrodiol; cited from earlier work.
Data set [2] deals with murine fibroblast line L929. The experiment in a line: TBARS test: lipid peroxidation after H2O2-Fe2+/Fe3+ stress. The following applies: L929 pre-treated 16 hours, H2O2-Fe2+/Fe3+ 1 hour. The format is cell-based. On the procedure: In order to assess membrane degradation, the authors of the invention have measured lipid peroxidation by means of an in vitro assay of complexes formed between the products of lipid oxidation and thiobarbituric acid. These complexes are called TBARS (standing for “Thiobarbituric Acid Reactive Substances”) and give their name to the test: the TBARS Test.
In order to mimic chemical oxidative stress, the fibroblast line L929 was treated with a complex composed of hydrogen peroxide (H2O2) and iron (Fe^2+/Fe^3+), accordingly reproducing Fenton's reaction, a source of OFRs and, more particularly, the free hydroxyl radical (OH^∘) (Vessey D. A. et al J. Invest Dermatol. 1992; 99: 859-63): H2O2+Fe^2+→OH^∘+OH^−+Fe^3+.
The products were assessed using the murine fibroblast line L929. The cells are pre-treated with the various concentrations of products (Table I) for 16 hours and then stimulated with the H2O2—Fe^2+/Fe^3+ complex for 1 hour. The LK0304 batch of unsaponifiable extract of pulp of fruit of the argan tree was prepared in accordance with Example 2.
The peroxidation of membrane lipids is analyzed by TBARS measurement (according to Morliére P. et al Biochim. Biophys. Acta. 1991; 1084: 261-268).
In an acid medium, at 95° C., complexes referred to as TBARS (standing for “ThioBarbituric Acid Reactive Substances”) are formed between the lipid oxidation products (malondialdehyde or MDA) and thiobarbituric acid (TBA), which can be fluorescence-assayed relative to a MDA standard series. The TBARS assay value is then expressed in pmol/μg of proteins. The proteins and TBARS are assayed in the intracellular medium.
Starting from the calculation of the TBARS in pmol/μg of proteins, the protective efficacy of the various products against oxidation of the lipid membranes was calculated as follows.

The subject of data set [3] is murine fibroblast line L929. The experiment in a line: 3D (DNA Damage Detection) test after H2O2 stress. The class given is cell-based. The following applies: 3 μg/ml, L929 pre-treated 16 hours, H2O2 100 μM 30 minutes; for % DNA protection: basal control 100%, H2O2 stressed 0%. From the text:
They decided to generate the lesions to DNA by means of H2O2 stress and to analyze indirectly the damage thereby caused, by analyzing the repair reaction. For that purpose, a kit referred to as the 3D (standing for “DNA Damage Detection”) test was used. This biochemical test mimics, in vitro, the repair reaction by means of excision (Salles B. et al Anal. Biochem. 1995; 232: 37-42 and Salles B. et al Biochimie 1999; 81: 53-58). The 3D test is based on the repairing of DNA lesions using purified human cell extracts.
The products were assessed using the murine fibroblast line L929. The cells are pre-treated with the products (Table III) for 16 hours and are then stimulated with H2O2 (Hydrogen Peroxide 3%—Ref. GIFRER—Laboratoire Gifrer Barbezat) at 100 μM for 30 minutes.
The principle is as follows: After damaging the genomic DNA (oxidative treatment), the cells are lysed. The lysate is deposited on a microplate coated with polylysine: • 1—Adsorption of the DNA • 2—Incubation of the DNA with a protein extract (enriched with repair enzymes) and a pool of nucleotides wherein one nucleotide is labeled with biotin (dUTP-Biotin)—Repair of the lesions and incorporation of the “dUTP-Biotin” labeled nucleotides in the DNA. • 3—Incubation with an “Avidin-Peroxidase” enzyme complex—Recognition by the avidin of the incorporated dUTP-Biotin. • 4—Addition of a luminescent peroxidase substrate and quantification of the emitted signal, which is proportional to the number of repaired lesions.
The test performance protocol is followed in accordance with the instructions of the kit supplier (Solyscel 3D Test—Ref: SFRIDN013— AES Laboratoire). At the end of the reaction, the plate is read in a luminometer (MITHRAS LB940-BERTHOLD).
The ratio below allows the percentage protection against the causation of lesions to DNA by oxidative stress to be calculated for each concentration of product tested (the Intensity of Luminescence—or IL—is an expression of the quantity of DNA lesions).
The values indicated in this Table are percentages of inhibition (or % protection) of lesions to DNA following exogenous oxidative stress, compared to “basal control” cells (100%) and “H2O2 stressed” cells (0%).

The conditions of data set [4]: compared to the triterpene fraction; cited from earlier work.

As for `CC1(C)CC[C@]2(CO)CC[C@]3(C)C(=CC[C@@H]4[C@@]5(C)CC[C@H](O)C(C)(C)[C@@H]5CC[C@]43C)[C@@H]2C1` [Erythrodiol], in data set [1], the Toxicity entry is given as “toxic”. In addition, the “Protection of membrane lipids in % Mean” value in data set [2] (0.3 μg/ml) is 33% and 33.75%; in data set [2] (1 μg/ml), 38.43%. Moreover, the “% lesions to DNA” value in data set [3] is 1%. In addition, the Intensity of luminescence in data set [3] was found to be 5520. The “% DNA protection” value is recorded as 99% in data set [3] and “the most active” in data set [3] (listed as erythrodiol). For the same compound, the “Benefit with respect to UVA and UVB” value in data set [4] is listed as “only mediocre benefit”.

Consider `C=C(C)[C@@H]1CC[C@]2(C)CC[C@]3(C)[C@H](CC[C@@H]4[C@@]5(C)CC[C@H](O)C(C)(C)[C@@H]5CC[C@]43C)[C@@H]12` [Lupeol], for which, in data set [3], the “% lesions to DNA” value worked out at 58.2%, the Intensity of luminescence turned out to be 9020 and the “% DNA protection” value is reported as 41.8%.

`C[C@H]1[C@H](C)CC[C@]2(C)CC[C@]3(C)C(=CC[C@@H]4[C@@]5(C)CC[C@H](O)C(C)(C)[C@@H]5CC[C@]43C)[C@H]12` [α-Amyrine]: in data set [3], the “% lesions to DNA” value was 52.4%, the Intensity of luminescence is 8663.3 and the “% DNA protection” value is on record as 47.6%.

Consider `CC1(C)CC[C@]2(C)CC[C@]3(C)C(=CC[C@@H]4[C@@]5(C)CC[C@H](O)C(C)(C)[C@@H]5CC[C@]43C)[C@@H]2C1` [β-Amyrine], for which, in data set [3], the “% lesions to DNA” value stood at 125.4%, the Intensity of luminescence was found to be 13133.3 and the “% DNA protection” value is listed as −25.4%.

Regarding Vitamin E [Vit E], the “Protection of membrane lipids in % Mean” value was 56.62% in data set [2] (400 μg/ml-928.7 μM) and “about 56%” in data set [2] (400 μg/ml-928.7 μM, listed as Vitamin E).

Source of the values: US20090012049A1, “Use of an Unsaponifiable Extract of Plant Pulp in the Treatment of Skin Ageing” (priority 2006, published 2009).
